The text below walks through data of patent US20080207694A1, “Hydroxamates as Histone Deacetylase Inhibitors and Pharmaceutical Formulations Containing Them” (priority 2005, published 2008).

Assay [1] relates to histone deacetylase (HDAC), nuclear extract of Hela cells. The experiment in a line: Deacetylase activity on nuclear extract of HeLa cells (Fluor de Lys kit). Format: biochemical, human. The note with it: percent inhibition relative to control without inhibitor, compound at 0.1 μM. Here is the method: (§1) The activity of the compounds as histone deacetylase (HDAC) inhibitors was measured using an in vitro acetylation assay. The compounds were then evaluated as inhibitors of proliferation of human tumor cell cultures.
Deacetylase Activity on Nuclear Extract of Hela Cells (Human Cervical Cancer Cell)
The assay (Fluor de Lys™ kit, BioMol) is divided into two steps: in the first step the substrate which comprises an acetylated lysine residue is reacted with the nuclear extract (HeLa) containing the enzymatic activity in the presence and absence of inhibitors. In the second step a fluorogenic reagent is added which highlights the deacetylated residues. A reduction in fluorescence is obtained where there has been inhibition of the deacetylase activity. The result is finally expressed as percent inhibition relative to the control without inhibitor at a concentration of 0.1 μM.

Assay [2] has as its system Human colon carcinoma cells HCT-116. Briefly: Cytotoxic activity on culture of human colon carcinoma cells HCT-116 (Alamar Blue). Particulars: HCT-116 cells, 72 hours after addition of compounds, Alamar Blue viability. Format: cell-based. Here is the method:
as §1
24 hours after seeding, the compounds at different concentrations are added. […] 72 hours after addition of the compounds, cell viability is measured by means of the dye Alamar Blue.

The IC50 is the midpoint of a concentration-inhibition curve. On to `O=C(CCCC1CCN(C(=O)Nc2cc3ccccc3s2)CC1)NO` [Ex 195, N-(benzo[b]thiophene)-4-(4-(hydroxyamino)-4-oxobutyl)piperidine-1-carboxamide], for which the “% inhib. 0.1 μM” value in assay [1] came out at 42%. This compound registered an IC50 in assay [2] of 400 nM.
Turning to `O=C(CCCC1CCN(C(=O)Nc2cccc3c2CCCC3)CC1)NO` [Ex 198, 4-(3-Hydroxycarbamoyl-propyl)-piperidine-1-carboxylic acid (5,6,7,8-tetrahydro-naphthalen-1-yl)-amide], the “% inhib. 0.1 μM” value in assay [1] turned out to be 77%. Further, in assay [2] (Homo sapiens, HCT-116, 72 h), the IC50 turned out to be 400 nM.
